The values below come from patent US6723747B2, “Substituted 6H-DiBenzo[c,h]chromenes as estrogenic agents” (Wyeth, priority 2001, dated 2004).

One series has as its target T1, human ERβ (Homo sapiens, UniProt Q92731).
T1 construct: M214-Q530 of human ERβ; Flag (C); made in house; host or cells: E. coli BL21(DE3), clarified lysate
The series is described as follows: Radioligand binding competition with [3H]-17β-estradiol, ERβ. The note with it: human ERβ ligand binding domain, read-out: ER-β IC50.

In another series the target is T2, human ERα (Homo sapiens, UniProt P03372).
T2 construct: amino acids M250-V595 of human ERα; His (N); made in house; host or cells: E. coli BL21(DE3), clarified lysate
T2 sequence (P03372 250-595): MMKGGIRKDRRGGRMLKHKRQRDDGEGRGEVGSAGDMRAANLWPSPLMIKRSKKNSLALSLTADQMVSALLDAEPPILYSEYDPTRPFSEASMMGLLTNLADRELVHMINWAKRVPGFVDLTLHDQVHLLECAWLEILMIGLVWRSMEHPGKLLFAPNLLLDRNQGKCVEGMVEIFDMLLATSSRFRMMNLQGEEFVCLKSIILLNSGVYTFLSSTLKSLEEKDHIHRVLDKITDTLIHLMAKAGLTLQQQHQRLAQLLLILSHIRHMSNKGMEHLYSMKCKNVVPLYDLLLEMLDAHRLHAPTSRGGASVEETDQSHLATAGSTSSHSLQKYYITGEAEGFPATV
The series is described as follows: Radioligand binding competition with [3H]-17β-estradiol, ERα. The settings on record: human ERα ligand binding domain, read-out: ER-α IC50.

The next series has as its system 129 SvE mice. The series is described as follows: Mouse uterotrophic test procedure (Procedure 2). The note with it: 50 mg/kg subcutaneously, 4 days, immature mice. The series is classed as in vivo. Here is the method:
Procedure 2: Sexually immature (18 days of age) 129 SvE mice were obtained from Taconic and provided unrestricted access to a casein-based diet (Purina Mills 5K96C) and water. On day 22, 23, 24 and 25 the mice were dosed subcutaneously with compound or vehicle (corn oil). There were six mice/group and they were euthanized approximately 6 hours after the last injection by CO2 asphyxiation and pneumothorax. Uteri were removed and weighed after trimming associated fat and expressing any internal fluid. The following results (Table (2)) were obtained for representative compounds from the invention.

The next series has as its system casein kinase II mRNA. As to the kind of experiment: Mammary end bud test procedure (rat mammotrophic assay). The series is classed as in vivo. The settings on record: 0.1 mg/kg sc + progesterone 30 mg/kg; ovariectomized rats; vehicle 1.61 ± 0.36. On the procedure:
Estrogens are required for full ductal elongation and branching of the mammary ducts, and the subsequent development of lobulo-alveolar end buds under the influence of progesterone. In this test procedure, the mammotrophic activity of selected compounds of the invention was evaluated according to the following standard pharmacological test procedure. Twenty-eight day old Sprague-Dawley rats (Taconic Farms, Germantown, N.Y.) were ovariectomized and rested for nine days. […] For the final three days, rats were also dosed subcutaneously with progesterone (30 mg/kg). On the seventh day, rats were euthanised and a mammary fat pad excised. This fat pad was analyzed for casein kinase II mRNA as a marker of end bud proliferation. Casein kinase II mRNA was anlayzed by real-time RT-PCR. Briefly, RNA was isolated following Trizol (GibcoBRL, Grand Island, N.Y.) according to the manufacture's directions, Samples were treated with DNAse I using DNA-free kit (Ambion), and casein kinase II mRNA levels were measured by real-time RT-PCR using the Taqman Gold procedure (PE Applied Biosystems). […] Casein kinase II mRNA levels were normalized to 18s ribosomal RNA contained within each sample reaction using primers and probe supplied by PE Applied Biosystems. The following results were obtained for an example of the invention (Table (4)).

Series [1] deals with progesterone receptor mRNA in the preoptic area of the rat brain. As to the kind of experiment: Progesterone receptor mRNA regulation test procedure. The note with it: 10 mg/kg, vehicle 4.3 ± 1.5. The series is classed as in vivo. The text has this:
This test procedure can be used to evaluate the estrogenic or antiestrogenic activity of compounds from this invention [Shughrue, et al., Endocrinology 138: 5476-5484 (1997)].

Where [2] appears, read: second experiment, vehicle 10.3 ± 0.8.

As a reminder, the IC50 is the midpoint of a concentration-inhibition curve. One may read the melting point as the temperature, or range, at which the solid turns liquid.

Some results are limits rather than exact numbers.

T1 sequence (Q92731 214-530): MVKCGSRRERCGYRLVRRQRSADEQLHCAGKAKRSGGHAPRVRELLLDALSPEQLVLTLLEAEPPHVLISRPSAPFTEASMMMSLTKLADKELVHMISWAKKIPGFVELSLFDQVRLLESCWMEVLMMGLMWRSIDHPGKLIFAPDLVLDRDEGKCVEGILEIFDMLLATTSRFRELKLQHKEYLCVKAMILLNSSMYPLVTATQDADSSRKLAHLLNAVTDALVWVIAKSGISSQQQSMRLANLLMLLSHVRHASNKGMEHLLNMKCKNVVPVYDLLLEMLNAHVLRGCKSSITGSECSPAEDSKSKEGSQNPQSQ

Consider `Oc1ccc2c(c1)COc1c-2ccc2c(O)c(Cl)ccc12` [Example 1y, 2-Chloro-6H-dibenzo[c,h]chromene-1,8-diol], for which the melting point was 181 to 182 °C (dec.). Further, the IC50 on human ERβ was 1.65 nM. The IC50 on human ERα amounted to 17.6 nM.

Consider `N#Cc1cc2c(c3ccc(O)c(Cl)c13)OCc1cc(O)ccc1-2` [Example 1f, 1-Chloro-2,8-dihydroxy-6H-dibenzo[c,h]chromene-12-carbonitrile], for which the melting point is > 250 °C. Besides, the IC50 at human ERβ was 3.5 nM. Moreover, the IC50 on human ERα stood at 156 nM.

The compound `CCc1cc2c(c3ccc(O)cc13)OCc1cc(O)ccc1-2` [Example 1p, 12-Ethyl-6H-dibenzo[c,h]chromene-2,8-diol] gave a melting point of 184 to 192 °C. The half-inhibitory concentration (IC50) at human ERβ amounted to 2.9 nM. On human ERα, the IC50 was 44 nM.

Turning to `N#Cc1cc2c(c3ccc(O)cc13)OCc1cc(O)c(F)cc1-2` [Example 1e, 9-fluoro-2,8-dihydroxy-6H-dibenzo[c,h]chromene-12-carbonitrile], the melting point was > 250 °C. Moreover, the IC50 at human ERβ came out at 19 nM. Moreover, on human ERα, the IC50 stood at 1230 nM.

As for `COc1cc2c(c3ccc(O)cc13)OCc1cc(O)ccc1-2` [Example 1l, 12-Methoxy-6H-dibenzo[c,h]chromene-2,8-diol], the melting point was 224 °C (dec.). For the same compound, the half-maximal inhibitory concentration (IC50) at human ERβ was 16 nM. In addition, on human ERα, the IC50 was 147 nM.

For `Cc1cc2c(c3ccc(O)cc13)OCc1cc(O)ccc1-2` [Example 1n, 12-Methyl-6H-dibenzo[c,h]chromene-2,8-diol], the melting point was 220 to 224 °C (dec.). For the same compound, the IC50 at human ERβ was 2.7 nM. Besides, the IC50 at human ERα came to 102 nM.

For the compound `Oc1ccc2c(c1)COc1c-2ccc2cc(O)ccc12` [Example 1a, 6H-Dibenzo[c,h]chromene-2,8-diol], the melting point is 248 to 252 °C (dec.). For the same compound, at human ERβ, the IC50 amounted to 3.3 nM. In addition, the half-inhibitory concentration (IC50) on human ERα was 74 nM.

In the case of `Oc1ccc2c(c1)COc1c-2cc(-c2ccsc2)c2cc(O)ccc12` [Example 1q, 12-Thien-3-yl—6H-dibenzo[c,h]chromene-2,8-diol], the melting point was in the range of 179 to 182 °C. The IC50 at human ERβ turned out to be 29.2 nM. Besides, on human ERα, the IC50 was 154 nM.

Regarding `Oc1ccc2c(c1)COc1c-2cc(Br)c2c(O)cccc12` [Example 1w, 12-Bromo-6H-dibenzo[c,h]chromene-1,8-diol], the IC50 at human ERβ came to 1.4 nM; at human ERα it was 10 nM.

With `N#Cc1cc2c(c3cccc(O)c13)OCc1cc(O)ccc1-2` [Example 1x, 1,8-Di hydroxy-6H-di benzo[c,h]chromene-12-carbonitrile], the IC50 amounted to 1.5 nM on human ERβ and 86 nM on human ERα.

In the case of `Oc1ccc2c3c(cc(Br)c2c1)-c1cc(F)c(O)cc1CO3` [Example 1j, 12-Bromo-9-fluoro-6H-dibenzo[c,h]chromene-2,8-diol], the melting point lay within 194 to 197 °C. Also, the IC50 on human ERβ was 2 nM. For the same compound, the half-inhibitory concentration (IC50) at human ERα came out at 77 nM.

Regarding `COc1c(Cl)c2c(c3ccc(O)cc13)OCc1cc(O)ccc1-2` [Example 1m, 11-Chloro-12-methoxy-6H-dibenzo[c,h]chromene-2,8-diol], the figures for the concentration for half-maximal inhibition (IC50) at human ERβ and on human ERα were 0.27 nM and 10.4 nM, respectively.

Consider `Oc1ccc2c(c1)COc1c-2cc(Cl)c2c(O)cccc12` [Example 1v, 12-Chloro-6H-dibenzo[c,h]chromene-1,8-diol], for which the half-maximal inhibitory concentration (IC50) at human ERβ was determined as 0.9 nM; on human ERα, 4.5 nM.

In turn, `CCCCc1cc2c(c3ccc(O)cc13)OCc1cc(O)ccc1-2` [Example 1s, 12-Butyl-6H-dibenzo[c,h]chromene-2,8-diol] came in with a melting point of 118 to 121 °C. In addition, the half-inhibitory concentration (IC50) on human ERβ is 3 nM. In addition, the IC50 on human ERα amounted to 71 nM.

`Oc1ccc2c(c1)COc1c-2ccc2ccccc12` [Example 1c, 6H-Dibenzo[c,h]chromen-8-ol] showed a melting point of 192 to 194 °C. Also, the IC50 at human ERβ was found to be 79.7 nM. Also, at human ERα, the IC50 was found to be 460 nM.

In the case of `Oc1ccc2c3c(ccc2c1)-c1cc(F)c(O)cc1CO3` [Example 1b, 9-Fluoro-6H-dibenzo[c,h]chromene-2,8-diol], the melting point was 230 to 231 °C (dec.). Further, the IC50 at human ERβ was 1.8 nM. In addition, on human ERα, the IC50 amounted to 20 nM.

For `C[C@]12CC[C@@H]3c4ccc(O)cc4CC[C@H]3[C@@H]1CC[C@@H]2O` [17β-estradiol, reference compound], the “mean uterine weight ± SEM” value is given as 46.7 ± 2.5 mg with 129 SvE mice (first experiment, vehicle 9.5 ± 0.3) and 45.3 ± 1.9 mg in the series on 129 SvE mice (setting [2]). Besides, in the series with casein kinase II mRNA, the “Casein kinase II mRNA/18S rRNA (mean ± SEM)” value came out at 39.0 ± 5.4.

Take `Oc1ccc2c(c1)COc1c-2cc(Br)c2cc(O)ccc12` [Example 1h, 12-Bromo-6H-dibenzo[c,h]chromene-2,8-diol]: the melting point was 178 to 180 °C (dec.). In addition, the IC50 at human ERβ worked out at 0.9 nM. For the same compound, the concentration for half-maximal inhibition (IC50) at human ERα worked out at 26 nM.

For the compound `Oc1ccc2c(c1)COc1c-2ccc2c(O)ccc(Cl)c12` [Example 1z, 4-chloro-6H-dibenzo[c,h]chromene-1,8-diol], the concentration for half-maximal inhibition (IC50) on human ERβ was 0.8 nM; at human ERα, 10 nM.

As to `C=Cc1cc2c(c3ccc(O)cc13)OCc1cc(O)ccc1-2` [Example 1o, 12-Vinyl-6H-dibenzo[c,h]chromene-2,8-diol], the melting point was > 220 °C. Further, the IC50 on human ERβ came to 2.3 nM. Also, the IC50 on human ERα was 81 nM.

The compound `Oc1ccc2c(c1)COc1c-2ccc2c(O)cccc12` [Example 1u, 6H-dibenzo[c,h]chromene-1,8-diol] gave a melting point of 213 to 214 °C. For the same compound, the 50% inhibitory concentration (IC50) at human ERβ worked out at 1.4 nM. Further, the concentration for half-maximal inhibition (IC50) on human ERα worked out at 17 nM.

As for `Oc1ccc2c3c(cc(Cl)c2c1)-c1cc(F)c(O)cc1CO3` [Example 1k, 12-Chloro-9-fluoro-6H-dibenzo[c,h]chromene-2,8-diol], the melting point was 215 to 220 °C (dec.). The IC50 on human ERβ stood at 2 nM. Further, the concentration for half-maximal inhibition (IC50) at human ERα is 27 nM.

Turning to `Oc1ccc2c(c1)COc1c-2ccc2c(Cl)c(O)ccc12` [Example 1g, 1-Chloro-6H-dibenzo[c,h]chromene-2,8-diol], the melting point was 216 to 218 °C. In addition, the 50% inhibitory concentration (IC50) on human ERβ was 2.7 nM. Moreover, the half-maximal inhibitory concentration (IC50) at human ERα amounted to 74 nM.

Consider `CCCc1cc2c(c3ccc(O)cc13)OCc1cc(O)ccc1-2` [Example 1t, 12-Propyl-6H-dibenzo[c,h]chromene-2,8-diol], for which the melting point is 86 to 95 °C. Also, on human ERβ, the IC50 is 11 nM. The IC50 at human ERα was 160 nM.

For the compound `Oc1ccc2c(c1)COc1c-2cc(Cl)c2cc(O)ccc12` [Example 1i, 12-Chloro-6H-dibenzo[c,h]chromene-2,8-diol], the melting point was 212 to 216 °C (dec.). For the same compound, on human ERβ, the 50% inhibitory concentration (IC50) was determined as 1.1 nM. Also, the half-maximal inhibitory concentration (IC50) at human ERα was 17 nM. In addition, in the series on 129 SvE mice (setting [2]), the “mean uterine weight ± SEM” value came to 28.9 ± 2.0 mg. Further, the “Progesterone receptor mRNA (mean ± stdev)” value in series [1] is 57.5 ± 14.0 arbitrary units.

The compound `Oc1ccc2c(c1)COc1c-2cc(-c2cccs2)c2cc(O)ccc12` [Example 1r, 12-Thien-2-yl-6H-dibenzo[c,h]chromene-2,8-diol] showed a melting point of 191 to 193 °C. In addition, the IC50 at human ERβ stood at 48.3 nM. Also, the IC50 at human ERα came out at 217 nM.
